Bridge positions count the residues as written; N and C are the ends. Square brackets hold non-standard residues; d marks the D form. Peptide text beside a SMILES is read from it. Lys(iPr) = CC(C)NCCCC[C@H](N)C(=O)O; Orn(iPr) = CC(C)NCCC[C@H](N)C(=O)O

Results on three molecules are retold here after patent publication US9556231B2, “Beta-hairpin peptidomimetics as CXC4 antagonists” (POLYPHOR AG, priority 2011, dated 2017).

The nature of the data set: Pharmacokinetic study (PK), i.v., CD-1 mice. The conditions noted are these: mouse, i.v. 1 mg/kg; for AUC(0-inf) / Cmax / clearance / half-life / Vd: one-compartmental model; for Vd: read-out: Vdis. The format is in vivo. How it is done:
For the compounds of Ex. 1, Ex. 2, Ex. 3, Ex. 4, Ex. 5 and Ex. 6 pharmacokinetic studies after intravenous (i.v.) administration were performed.
30 grams (±20%) male CD-1 mice obtained from Charles River Laboratories Deutschland GmbH were used. The vehicle, phosphate buffered saline, was added to give a final concentration of 0.5 mg/mL of the compound. The volume was 2 mL/kg and the compound was injected to give a final intravenous dose of 1 mg/kg. Approximately 300-400 μL of blood was removed under light isoflurane anesthesia by cardiac puncture at predetermined time intervals (5, 15, 30 min and 1, 2, 3, 4, hours) and added to heparinized tubes. Plasma was removed from pelleted cells upon centrifugation and frozen at −80° C. prior to HPLC-MS analysis.
Aliquots of 50 μL each of mouse plasma of untreated aminals (“blank” mouse plasma) were spiked with known amounts of the compounds Ex. 1, Ex. 2, Ex. 3, Ex. 4, Ex. 5 and Ex. 6 in order to obtain 10 plasma calibration samples for each compound in the range 1-4000 ng/mL. Aliquots of 50 μL each of mouse plasma from treated animals were used as plasma study samples.
All plasma samples were spiked with an appropriate internal standard and extracted with acetonitrile containing 2% formic acid. Supernatants were evaporated to dryness under nitrogen and the remaining solids reconstituted in water/acetonitrile 95/5 (v/v)+0.2% formic acid.
Extracts were then analyzed by reverse-phase chromatography (Acquity BEH C18, 100×2.1 mm, 1.7 μm column, Waters for Ex. 1 and Acquity HSS C18 SB, 100×2.1 mm, 1.8 μm column, Waters for Ex. 2, Ex. 3, Ex. 4, Ex. 5 and Ex. 6), using the following conditions: Ex. 1, mobile phases: (A) water/acetonitrile 95/5 (v/v)+0.1% formic acid, (B) acetonitrile/water 95/5 (v/v)+0.1% formic acid, gradient: 1% (B) 0-0.1 min, 15% (B) 0.1-2.5 min for Ex. 1 and 1% (B) 0-0.1 min, 40% (B) 0.1-2.5 min for Ex. 2, Ex. 3, Ex. 4, Ex. 5 and Ex. 6. The detection and quantification was performed by mass spectrometry, with electrospray interface in positive mode and selective fragmentation of analytes (4000 Q Trap mass spectrometer, AB Sciex).
PK parameters were calculated by WinNonLin™ software version 5.3 (Pharsight-A Certara™ Company, Mountain View, Calif. 94041 USA) using a one-compartmental model analysis. PK parameters were determined by least-square fitting of the model to the experimental data.

The mark [1] stands for this setting: male, CD-1, in vivo, iv, read-out: Calc. Conc. (plasma).

With `CC(C)NCCCC[C@@H]1NC(=O)[C@H](CCC(N)=O)NC(=O)[C@H](Cc2ccc(O)cc2)NC(=O)[C@@H]2CSSC[C@H](NC(=O)[C@H](Cc3ccc(O)cc3)NC(=O)[C@H](Cc3c[nH]cn3)NC(=O)[C@H](Cc3ccc(O)cc3)NC(=O)[C@@H]3CCCN3C(=O)[C@H]3CCCN3C1=O)C(=O)N[C@@H](CO)C(=O)N[C@@H](C)C(=O)N1CCC[C@@H]1C(=O)N[C@@H](CCCNC(C)C)C(=O)N[C@@H](CCCNC(=N)N)C(=O)N[C@@H](Cc1ccc(O)cc1)C(=O)N2` [Ex. 1, cyclo(-Tyr^1-His^2-Tyr^3-Cys^4-Ser^5-Ala^6-^DPro^7-Orn(iPr)^8-Arg^9-Tyr^10-Cys^11-Tyr^12-Gln^13-Lys(iPr)^14-^DPro^15-Pro^16-) disulfide bond between Cys^4 and Cys^11] (cyclo(YHYCSA[dP][Orn(iPr)]RYCYQ[Lys(iPr)][dP]P); disulfide 4-11), under setting [1], the level at 0.083 h was 1720 ng/mL, the level at 0.25 h was 989 ng/mL, the level at 0.5 h was 947 ng/mL and the level at 1 h was 373 ng/mL. For the same molecule, under setting [1], the level at 2 h is 129 ng/mL and the level at 3 h was 15 ng/mL. Also, under “male, CD-1, in vivo, iv”, the AUC(0-inf) (commonly total exposure, with the tail of the curve extrapolated) worked out at 1150 ng·h/mL; the Cmax (as a rule, the peak of the concentration-time curve) came out at 1830 ng/mL; the clearance (in general, a measure of how efficiently the substance is removed, as volume per time) was 14.5 mL/min/kg; the half-life (as a rule, the time in which the quantity being followed falls by half) was 24 min. The Vd (male, CD-1, in vivo, iv) is 0.547 L/kg.

With `COc1ccc(C[C@H]2NC(=O)[C@H](C)NC(=O)[C@H](CO)NC(=O)[C@@H]3CSSC[C@H](NC(=O)[C@H](Cc4ccc(O)cc4)NC(=O)[C@H](CCCNC(=N)N)NC(=O)[C@H](CCCNC(C)C)NC2=O)C(=O)N[C@@H](Cc2ccc(O)cc2)C(=O)N[C@@H](CCC(N)=O)C(=O)N[C@@H](CCCCNC(C)C)C(=O)N2CCC[C@@H]2C(=O)N2CCC[C@H]2C(=O)N[C@@H](Cc2ccc(O)cc2)C(=O)N[C@@H](Cc2c[nH]cn2)C(=O)N[C@@H](C)C(=O)N3)cc1` [Ex. 4, cyclo(-Tyr^1-His^2-Ala^3-Cys^4-Ser^5-Ala^6-^DTyr(Me)^7-Orn(iPr)^8-Arg^9-Tyr^10-Cys^11-Tyr^12-Gln^13-Lys(iPr)^14-^DPro^15-Pro^16-), disulfide bond between Cys^4 and Cys^11] (cyclo(YHACSA[dY](Me)[Orn(iPr)]RYCYQ[Lys(iPr)][dP]P); disulfide 4-11), under setting [1], the level at 0.083 h was 1620 ng/mL, the level at 0.25 h was 869 ng/mL, the level at 0.5 h is 775 ng/mL and the level at 1 h was 504 ng/mL. Further, under setting [1], the level at 2 h is 159 ng/mL and the level at 3 h was 25 ng/mL. Besides, the level at 4 h (male, CD-1, in vivo, iv, 4 h, read-out: Calc. Conc. (plasma)) was 13 ng/mL. For the setting “male, CD-1, in vivo, iv”, the AUC(0-inf) was 1340 ng·h/mL, the peak concentration (Cmax) amounted to 1620 ng/mL, the clearance was 12.4 mL/min/kg and the half-life was 36 min. Moreover, the Vd (male, CD-1, in vivo, iv) was found to be 0.607 L/kg.

For `COc1ccc(C[C@@H]2NC(=O)[C@H](Cc3c[nH]cn3)NC(=O)[C@H](Cc3ccc(O)cc3)NC(=O)[C@@H]3CCCN3C(=O)[C@H]3CCCN3C(=O)[C@H](CCCCNC(C)C)NC(=O)[C@H](CCC(N)=O)NC(=O)[C@H](Cc3ccc(O)cc3)NC(=O)[C@@H]3CSSC[C@H](NC2=O)C(=O)N[C@@H](CO)C(=O)N[C@@H](C)C(=O)N[C@H](Cc2ccc(OC)cc2)C(=O)N[C@@H](CCCNC(C)C)C(=O)N[C@@H](CCCNC(=N)N)C(=O)N[C@@H](Cc2ccc(O)cc2)C(=O)N3)cc1` [Ex. 6, cyclo(-Tyr^1-His^2-Tyr(Me)^3-Cys^4-Ser^5-Ala^6-^DTyr(Me)^7-Orn(iPr)^8-Arg^9-Tyr^10-Cys^11-Tyr^12-Gln^13-Lys(iPr)^14-^DPro^15-Pro^16-), disulfide bond between Cys^4 and Cys^11] (cyclo(YHY(Me)CSA[dY](Me)[Orn(iPr)]RYCYQ[Lys(iPr)][dP]P); disulfide 4-11), under setting [1], the level at 0.083 h was 686 ng/mL, the level at 0.25 h is 435 ng/mL, the level at 0.5 h was 215 ng/mL and the level at 1 h was 75 ng/mL. Further, under setting [1], the level at 2 h was 36 ng/mL and the level at 3 h was 13 ng/mL. Moreover, for the setting “male, CD-1, in vivo, iv”, the AUC(0-inf) was found to be 409 ng·h/mL, the concentration peaked (Cmax) at 686 ng/mL, the clearance was 40.8 mL/min/kg and the half-life is 48 min. Moreover, where the note is “male, CD-1, in vivo, iv”, the Vd came out at 2.98 L/kg. For the same molecule, the “Calc. Conc. (plasma)” value (4 h) is reported as 7 ng/mL.
